Data: article PMC11729428, “New Potent Inhibitor of Transforming Growth Factor-Beta (TGFβ) Signaling that is Efficacious against Microsatellite Stable Colorectal Cancer Metastasis in Combination with Immune Checkpoint Therapy in Mice” (ACS Pharmacology & Translational Science, 2024)
Read-outs that look alike come from different tables or passages of the source.

Columns and labels:
panel of enzymes = assay: In vitro safety pharmacology, enzymatic inhibition (SafetyScreen 44); assay type: biochemical; details: 10 μM HYL001
Experimental: To identify potential adverse off-target drug interactions and derisk the development of HYL001 as a drug,[22] we performed binding and enzymatic inhibition assays with a panel of key proteins (mainly cell receptors, neurotransmitter transporters, and ion channels). […]
analysis by LC-MS/MS, using MRM mode. […]
related to phase I and phase II metabolism, respectively.
The PARs were used for calculation of metabolic stability. The 0 min area ratio was considered as 100%. The […]
incubation volume / number of cells (in millions) x K e. To calculate into full body context, the values of 120 […]
In vitro safety pharmacology […]
compared with historical values determined at Eurofins. Binding was defined as the % inhibition of the signal […]
enzyme activity. […] Results showing
The tail current amplitude, induced by a one […]
and expressed as % inhibition.
The Ames test was performed at Xenomatrix (Allschwil, Switzerland). Bacteria from the S. typhimurium

[1] = Plasma pharmacokinetics after single oral administration in rats; assay type: in vivo, Sprague Dawley rats; details: 71 mg/kg, rats (♂ SD)
Experimental: We assessed the in vivo pharmacokinetic properties of HYL001 after a single oral administration (dose of 71 mg/kg) in BALB/c mice as well as in Sprague–Dawley (SD) Rats. Liquid chromatography–tandem mass spectrometry (LC/MS/MS) was used for the determination of HYL001 in plasma (Figure S2 and Table 2).
6. Methods for in vivo characterizations of HYL001
Similarly, three rats were used in this study. Animals were administered orally with a suspension formulation of […]

ALK5 = details: cited from earlier work
[2] = system: mouse tumor organoids (MTOs), CRC liver metastases; set-up: method as in PMID 29443964; details: murine CRC liver metastasis model ref 5; cited from earlier work
ALK6 (BMPR1B) = target: T1, ALK6 (BMPR1B) (Homo sapiens, UniProt O00238); set-up: method as in earlier work; details: reported data ref 15; read-out: Binding constant (Kd) ALK6 (BMPR1B); cited from earlier work
T1 construct: purchased Eurofins/DiscoveryX (KINOMEscan service)

TGFBR2 = target: T2, TGFBR2 (Homo sapiens, UniProt P37173); set-up: method as in earlier work; details: reported data ref 15; read-out: Binding constant (Kd) TGFBR2; cited from earlier work
T2 construct: purchased Eurofins/DiscoveryX (KINOMEscan service)

[3] = set-up: method as in PMID 24786585; details: rats (♀ SD), oral, 10 mg/kg ref 18; cited from earlier work
[4] = male, Sprague-Dawley, rat, plasma

T2 sequence (P37173 23-567): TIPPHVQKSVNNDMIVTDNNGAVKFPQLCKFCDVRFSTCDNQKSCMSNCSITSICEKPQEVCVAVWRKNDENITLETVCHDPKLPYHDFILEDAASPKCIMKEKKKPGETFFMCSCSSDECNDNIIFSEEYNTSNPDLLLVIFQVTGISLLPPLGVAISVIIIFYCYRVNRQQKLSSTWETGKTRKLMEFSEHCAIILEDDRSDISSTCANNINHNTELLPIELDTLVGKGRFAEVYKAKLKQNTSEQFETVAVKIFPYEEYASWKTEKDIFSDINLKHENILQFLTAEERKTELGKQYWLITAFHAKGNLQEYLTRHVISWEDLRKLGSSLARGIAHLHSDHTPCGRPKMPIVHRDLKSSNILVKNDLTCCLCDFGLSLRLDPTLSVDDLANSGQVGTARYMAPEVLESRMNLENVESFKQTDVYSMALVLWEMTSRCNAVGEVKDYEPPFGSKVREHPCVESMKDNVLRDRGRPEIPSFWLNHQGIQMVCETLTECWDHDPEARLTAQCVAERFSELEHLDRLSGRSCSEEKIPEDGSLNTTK
T1 sequence (O00238 14-502): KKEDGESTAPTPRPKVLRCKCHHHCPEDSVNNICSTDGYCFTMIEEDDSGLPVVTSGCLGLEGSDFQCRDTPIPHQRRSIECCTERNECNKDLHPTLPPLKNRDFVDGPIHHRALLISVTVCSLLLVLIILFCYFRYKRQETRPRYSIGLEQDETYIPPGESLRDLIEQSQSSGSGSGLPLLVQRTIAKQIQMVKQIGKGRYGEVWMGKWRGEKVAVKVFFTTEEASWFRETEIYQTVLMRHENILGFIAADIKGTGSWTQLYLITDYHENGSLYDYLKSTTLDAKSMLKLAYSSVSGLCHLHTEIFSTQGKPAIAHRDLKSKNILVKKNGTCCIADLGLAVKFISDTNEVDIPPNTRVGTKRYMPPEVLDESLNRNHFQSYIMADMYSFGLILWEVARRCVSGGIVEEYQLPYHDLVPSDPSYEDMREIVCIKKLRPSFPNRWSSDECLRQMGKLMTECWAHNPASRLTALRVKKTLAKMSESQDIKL

Cc1cccc(-c2nn3c(c2-c2ccnc4ccc(O)cc24)CCC3)n1 [HYL001, 4-(2-(6-Methylpyridin-2-yl)-5,6-dihydro-4H-pyrrolo[1,2-b]pyrazol-3-yl)quinolin-6-ol]
Inhibition of any of the tested enzymatic activities (panel of enzymes): ≤ 50% | half-life ([1]; male, Sprague-Dawley, rat, plasma, po): ~300 min | AUC(0-inf) [1, 4]: 22000 ng·h/mL | AUC(0-t) [1, 4]: 21600 ng·h/mL | CL/F [1, 4]: 53.8 mL/min/kg | Cmax [1, 4]: 8540 ng/mL | Tmax [1, 4]: 40.2 min | Vd/F ([1]; male, Sprague-Dawley, rat, plasma, read-out: Vss/F): 10.8 L/kg | T1/2 [1]: 4.8 h

Cc1cccc(-c2nn3c(c2-c2ccnc4ccc(C(N)=O)cc24)CCC3)n1 [galunisertib]
IC50 (ALK5): […] | Efficacious murine dose [2]: 720–800 mg/kg twice daily (BID) | Kd (ALK6 (BMPR1B)): 471 nM | Kd (TGFBR2): 208 nM

Cc1cccc(-c2[nH]c(CNc3ccccc3F)nc2-c2ccc3ncnn3c2)n1 [vactosertib, N -((4-([1,2,4]Triazolo[1,5-a]Pyridin-6-Yl)-5-(6-Methylpyridin-2-Yl)-1 H -Imidazole-2-Yl)Methyl)-2-Fluoroaniline]
AUCinf [3]: 1426 ng·h/mL | Cmax [3]: 1620 ng/mL | T1/2 [3]: 2.5 h
